This passage reports Ki, EC50 and Kb results from patent US20120135923A1, “Use of Melanocortins to Treat Dyslipidemia” (IPSEN PHARMA, S.A.S., priority 2009, published 2012).

pEC50, pKi: −log10 of the molar value. Read-outs that look alike come from different tables or passages of the source. Bridge positions count the residues as written; N and C are the ends. Square brackets hold non-standard residues; d marks the D form. Peptide text beside a SMILES is read from it. Bip = N[C@@H](Cc1ccc(-c2ccccc2)cc1)C(=O)O; d2Nal = N[C@H](Cc1ccc2ccccc2c1)C(=O)O; Bta = N[C@@H](Cc1csc2ccccc12)C(=O)O; hArg = N=C(N)NCCCC[C@H](N)C(=O)O; Nle = CCCC[C@H](N)C(=O)O; Ahx = NCCCCCC(=O)O; GABA = NCCCC(=O)O; βAla = NCCC(=O)O

Assay [1] deals with T1, hMC1-R (Homo sapiens, UniProt Q01726).
T1 construct: expressed in transfected cells; host or cells: CHO-K1
Put plainly: Radioligand binding assay, [125I]-NDP-α-MSH competition, CHO-K1 membranes.

Assay [2] addresses T2, hMC3-R (Homo sapiens, UniProt P41968).
T2 construct: expressed in transfected cells; host or cells: CHO-K1
The assay is described as above.

The target of assay [3] is T3, hMC4-R (Homo sapiens, UniProt P32245).
T3 construct: expressed in transfected cells; host or cells: CHO-K1
The description is as above.

In assay [4] the target is T4, hMC5-R (Homo sapiens, UniProt P33032).
T4 construct: expressed in transfected cells; host or cells: CHO-K1
The assay is described as above.

Assay [5] deals with T1, hMC1-R. The assay is described as follows: cyclic AMP bioassay (ECL) in CHO-K1 cells. The format is cell-based.
Description: (§1) Intracellular cyclic AMP (cAMP) levels were determined by an electrochemiluminescence (ECL) assay (Meso Scale Discovery®, Gaithersburg, Md.; referred to hereinafter as MSD). […] Transgenic CHO-K1 cells stably expressing hMC receptor subtypes 1, 3, 4 or 5 were dispensed at a density of approximately 7,000 cells/well in 384-well Multi-Array®plates (MSD) containing integrated carbon electrodes and coated with anti-cAMP antibody. Increasing concentrations of the test compounds were added and the cells were incubated for approximately 40 minutes at approximately 37° C. […] At the end of the second incubation period read buffer (Tris-buffered solution containing an ECL co-reactant and Triton X-100 at ph 7.8) was added and the cAMP levels in the cell lysates were immediately determined by ECL detection with a Sector Imager 6000 Reader® (MSD). Data were analyzed using a computer-assisted non-linear regression analysis (XL fit; IDBS) and reported as either an EC50 value or a Kb value.
(§2) The Kb value reflects the potency of an antagonist and is determined by Schild analysis. In brief, concentration-response curves of an agonist are carried out in the presence of increasing concentrations of an antagonist. […] It is calculated by extrapolating the line on a Schild plot to zero on the y-axis.
Assay [6] addresses T2, hMC3-R. Put plainly: cyclic AMP bioassay (ECL) in CHO-K1 cells. Particulars: for Kb: Table 9C/9D, antagonist potency by Schild analysis, read-out: Kb hMC3-R. The format is cell-based.
For assay [7], the target named is T3, hMC4-R. The assay is described as follows: cyclic AMP bioassay (ECL) in CHO-K1 cells. Type of assay: cell-based. Particulars: for Kb: Table 9C/9D, antagonist potency by Schild analysis, read-out: Kb MC4-R.
Description: as §1, §2
In assay [8] the target is T4, hMC5-R. The assay is described as follows: cyclic AMP bioassay (ECL) in CHO-K1 cells. The format is cell-based.
Description: as §1, §2
[9] abbreviates: Table 9C/9D, read-out: EC50 hMC1-R.
Where [10] appears, read: Table 9C/9D, read-out: EC50 hMC5-R.

T1 sequence (Q01726 whole entry): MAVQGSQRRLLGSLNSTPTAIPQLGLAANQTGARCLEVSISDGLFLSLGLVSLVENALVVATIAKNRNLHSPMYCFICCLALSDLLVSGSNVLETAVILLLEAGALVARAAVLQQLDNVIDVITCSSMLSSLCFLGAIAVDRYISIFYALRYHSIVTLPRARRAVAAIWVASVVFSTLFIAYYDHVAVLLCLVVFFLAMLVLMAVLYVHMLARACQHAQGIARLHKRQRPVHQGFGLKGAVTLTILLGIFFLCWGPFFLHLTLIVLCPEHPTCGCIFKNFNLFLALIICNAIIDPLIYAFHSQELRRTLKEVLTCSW
T3 sequence (P32245 whole entry): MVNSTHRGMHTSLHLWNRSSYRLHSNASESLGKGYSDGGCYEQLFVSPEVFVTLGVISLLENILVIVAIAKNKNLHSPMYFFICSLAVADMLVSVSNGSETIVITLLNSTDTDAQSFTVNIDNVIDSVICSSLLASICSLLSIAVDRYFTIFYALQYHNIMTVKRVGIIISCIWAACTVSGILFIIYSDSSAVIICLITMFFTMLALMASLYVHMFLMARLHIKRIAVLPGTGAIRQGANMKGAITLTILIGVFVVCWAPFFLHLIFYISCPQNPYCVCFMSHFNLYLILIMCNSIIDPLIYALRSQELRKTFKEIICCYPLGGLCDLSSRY
T2 sequence (P41968 whole entry): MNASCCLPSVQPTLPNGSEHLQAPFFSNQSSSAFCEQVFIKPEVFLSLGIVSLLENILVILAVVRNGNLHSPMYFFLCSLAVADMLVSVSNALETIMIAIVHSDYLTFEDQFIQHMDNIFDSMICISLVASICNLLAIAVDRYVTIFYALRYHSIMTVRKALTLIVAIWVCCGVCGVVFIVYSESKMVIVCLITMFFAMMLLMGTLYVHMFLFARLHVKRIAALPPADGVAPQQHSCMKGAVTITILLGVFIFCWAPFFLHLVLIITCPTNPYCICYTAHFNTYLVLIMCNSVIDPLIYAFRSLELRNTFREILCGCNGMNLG
T4 sequence (P33032 whole entry): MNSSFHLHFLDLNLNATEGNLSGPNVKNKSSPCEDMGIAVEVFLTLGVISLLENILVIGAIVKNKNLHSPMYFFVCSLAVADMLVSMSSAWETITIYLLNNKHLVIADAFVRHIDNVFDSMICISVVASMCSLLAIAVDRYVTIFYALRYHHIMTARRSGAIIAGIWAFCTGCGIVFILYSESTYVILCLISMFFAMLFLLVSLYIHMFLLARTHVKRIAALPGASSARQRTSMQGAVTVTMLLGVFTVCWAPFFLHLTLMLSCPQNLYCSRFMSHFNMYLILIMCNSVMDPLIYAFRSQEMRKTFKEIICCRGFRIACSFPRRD

For `CCCC[C@H](NC(C)=O)C(=O)N[C@H]1CSSC[C@@H](C(N)=O)NC(=O)[C@H](Cc2c[nH]c3ccccc23)NC(=O)[C@H](CCCNC(=N)N)NC(=O)[C@@H](Cc2ccccc2)NC(=O)[C@H](Cc2c[nH]cn2)NC(=O)[C@@H](C)NC1=O` [Ac-Nle-c(Cys-D-Ala-His-D-Phe-Arg-Trp-Cys)-NH2], the pKi at hMC1-R [1] (Ki hMC1-R, Table 5) is 7.96; on hMC3-R [2] (Ki hMC3-R, Table 5), 7.59; at hMC4-R [3] (Ki KMC4-R, Table 5), 8.12; at hMC5-R [4] (Ki hMC5-R, Table 5), 5.74. Further, the pEC50 is 8.62 at hMC1-R [5], 9.48 at hMC3-R [6], 10.11 at hMC4-R [7] and 6.38 at hMC5-R [8].

With `CC(=O)N[C@@H](CC1CCCCC1)C(=O)N[C@H]1CC(=O)NCCCC[C@@H](C(N)=O)NC(=O)CCCNC(=O)[C@H](Cc2c[nH]c3ccccc23)NC(=O)[C@H](CCCNC(=N)N)NC(=O)[C@@H](Cc2ccc3ccccc3c2)NC(=O)[C@H](Cc2c[nH]cn2)NC1=O` [Ac-Cha-c(Asp-His-D-2-Nal-Arg-Trp-Gaba-Lys)-NH2], the pKi at hMC1-R [1] (Table 5, read-out: Ki hMC1-R) was 9.24; at hMC3-R [2] (Table 5, read-out: Ki hMC3-R), 8.40; on hMC4-R [3] (Table 5, read-out: Ki KMC4-R), 8.55; at hMC5-R [4] (Table 5, read-out: Ki hMC5-R), 8.41. Further, the figures for the pEC50 at hMC1-R [5] (setting [9]) and at hMC5-R [8] (setting [10]) were 8.90 and 9.13, respectively. Moreover, the values for the Kb at hMC3-R [6] and on hMC4-R [7] were 3.02 nM and 0.442 nM, respectively.

In the case of `CCCC[C@H](NC(C)=O)C(=O)N[C@H]1CSSC[C@@H](C(N)=O)NC(=O)CCCCCNC(=O)[C@H](Cc2c[nH]c3ccccc23)NC(=O)[C@H](CCCNC(=N)N)NC(=O)[C@@H](Cc2ccc3ccccc3c2)NC(=O)[C@H](Cc2c[nH]cn2)NC1=O` [Ac-Nle-c(Cys-His-D-2-Nal-Arg-Trp-Ahx-Cys)-NH2] (Ac-[Nle]CH[d2Nal]RW[Ahx]C-NH2; disulfide 2-8 (inferred)), the pKi on hMC1-R [1] (Table 5, read-out: Ki hMC1-R) is 9.48; on hMC3-R [2] (Table 5, read-out: Ki hMC3-R) it was 8.54; at hMC4-R [3] (Table 5, read-out: Ki KMC4-R), 9.00; on hMC5-R [4] (Table 5, read-out: Ki hMC5-R), 9.44. In addition, the pEC50 on hMC1-R [5] (setting [9]) is 9.24; at hMC5-R [8] (setting [10]), 9.90. Further, the Kb on hMC3-R [6] stood at 10.8 nM; at hMC4-R [7], 0.967 nM.

In the case of `CCOc1ccc(C[C@H]2NC(=O)[C@H](Cc3c[nH]cn3)NC(=O)[C@@H](NC(=O)[C@H](N)Cc3ccccc3)CSSC[C@H](C(=O)N[C@H](C(N)=O)[C@@H](C)O)NC(=O)CCNC(=O)[C@H](Cc3ccc(-c4ccccc4)cc3)NC(=O)[C@H](CCCCNC(=N)N)NC2=O)cc1` [D-Phe-c(Cys-His-D-(Et)Tyr-hArg-Bip-β-Ala-D-Cys)-Thr-NH2] (H-[dF]CH[dY](Et)[hArg][Bip][βAla][dC]T-NH2; disulfide 2-8), the pKi on hMC1-R [1] (Table 5, read-out: Ki hMC1-R) is 9.89; at hMC3-R [2] (Table 5, read-out: Ki hMC3-R), 7.07; at hMC4-R [3] (Table 5, read-out: Ki KMC4-R) it was 7.43; at hMC5-R [4] (Table 5, read-out: Ki hMC5-R), 7.42. Also, the pEC50 is 9.16 on hMC1-R [5] (Table 9A/9B, read-out: EC50 hMC1-R); 7.09 on hMC3-R [6] (Table 9A/9B, read-out: EC50 hMC3-R); 7.06 at hMC4-R [7] (Table 9A/9B, read-out: EC50 hMC4-R); 7.50 at hMC5-R [8] (Table 9A/9B, read-out: EC50 hMC5-R).

With `CCCC[C@H](NC(C)=O)C(=O)N[C@H]1CSSC[C@@H](C(N)=O)NC(=O)CCCNC(=O)[C@H](Cc2c[nH]c3ccccc23)NC(=O)[C@H](CCCNC(=N)N)NC(=O)[C@@H](Cc2ccc3ccccc3c2)NC(=O)[C@H](Cc2c[nH]cn2)NC1=O` [Ac-Nle-c(Cys-His-D-2-Nal-Arg-Trp-Gaba-Cys)-NH2] (Ac-[Nle]CH[d2Nal]RW[GABA]C-NH2; disulfide 2-8), the pKi at hMC1-R [1] (Table 5, read-out: Ki hMC1-R) was 9.41; on hMC3-R [2] (Table 5, read-out: Ki hMC3-R), 8.73; on hMC4-R [3] (Table 5, read-out: Ki KMC4-R) it was 9.43; on hMC5-R [4] (Table 5, read-out: Ki hMC5-R) it was 8.95. Besides, the figures for the pEC50 at hMC1-R [5] (setting [9]) and on hMC5-R [8] (setting [10]) were 9.64 and 9.82, respectively. The Kb at hMC3-R [6] amounted to 18.4 nM; on hMC4-R [7] it was 0.782 nM.

For `CC(=O)N[C@H]1CSSC[C@@H](C(=O)N2CCC[C@H]2C(=O)N2CCC[C@H]2C(=O)N[C@@H](CCCCN)C(=O)N[C@@H](CC(=O)O)C(N)=O)NC(=O)[C@H](C)NC(=O)[C@H](Cc2csc3ccccc23)NC(=O)[C@H](CCCNC(=N)N)NC(=O)[C@@H](Cc2ccc3ccccc3c2)NC(=O)[C@H](Cc2c[nH]cn2)NC(=O)[C@H](CCC(=O)O)NC1=O` [Ac-c(Cys-Glu-His-D-2-Nal-Arg-Bal-Ala-Cys)-Pro-Pro-Lys-Asp-NH2] (Ac-CEH[d2Nal]R[Bta]ACPPKD-NH2; disulfide 1-8), the pKi is 6.79 on hMC1-R [1] (Table 6, read-out: Ki hMC1-R); 7.64 on hMC3-R [2] (Table 6, read-out: Ki hMC3-R); 9.23 on hMC4-R [3] (Table 6, read-out: Ki hMC4-R); 6.07 at hMC5-R [4] (Table 6, read-out: Ki hMC5-R).

In the case of `CC(=O)N[C@@H](Cc1ccccc1)C(=O)N[C@H]1CSSC[C@@H](C(N)=O)NC(=O)CCCNC(=O)[C@H](Cc2c[nH]c3ccccc23)NC(=O)[C@H](CCCNC(=N)N)NC(=O)[C@@H](Cc2ccccc2)NC(=O)[C@H](Cc2c[nH]cn2)NC1=O` [Ac-Phe-c(Cys-His-D-Phe-Arg-Trp-Gaba-Cys)-NH2] (Ac-FCH[dF]RW[GABA]C-NH2; disulfide 2-8), the pKi at hMC1-R [1] (Ki hMC1-R) was 9.60; on hMC3-R [2] (Ki hMC3-R), 7.73; at hMC4-R [3] (Ki KMC4-R), 8.67; at hMC5-R [4] (Ki hMC5-R), 9.15.

One may read the pKi as the Ki on a negative log10 scale, so that one unit is a factor of ten. As usually defined, the pEC50 is the negative decadic logarithm of the EC50, by convention in mol/L. For orientation: Kb means the affinity of an antagonist, worked out from how it opposes an agonist.
